According to patent US6794379B2, “CXCR3 antagonists” (Tularik Inc., priority 2001, dated 2004):
Where a name gives a salt, the structure may show the parent alone.

Row | SMILES | melting point [°C]
1 | CC(c1nc2ccccc2c(=O)n1-c1ccc(F)cc1)N(CCN(C)C)C(=O)Cc1ccccc1 (stereo not drawn) | 153
2 | Cc1ccc(CC(=O)N(CCN(C)C)C(C)c2nc3ccccc3c(=O)n2-c2ccc(F)cc2)cc1 (stereo not drawn) | 188.3
3 | CCOCCN(C(=O)Cc1ccc(-c2ccccc2)cc1)C(C)c1nc2ccccc2c(=O)n1-c1ccc(OCC)cc1 (stereo not drawn) | 98.1
4 | C[C@H](c1nc2ccccc2c(=O)n1-c1ccc(F)cc1)N(Cc1nccs1)C(=O)Cc1ccc(C(F)(F)F)cc1 | 173 to 174
5 | CCOc1ccc(-n2c(C(C)N(Cc3ccccn3)C(=O)Cc3ccc(C(F)(F)F)cc3)nc3ccccc3c2=O)cc1 (stereo not drawn) (as salt: hydrochloride) [Compound 3.04, 2-((N-2-Picolyl)-N-(4-trifluoromethylphenylacetyl)-1-aminoethyl)-3-(4-ethoxyphenyl) -3H-quinazoline-4-one] | 167.5
6 | CC(c1nc2ccccc2c(=O)n1-c1ccc(F)cc1)N(Cc1cccnc1)C(=O)Cc1ccc(C(F)(F)F)cc1 (racemic) | 167
7 | CC(c1nc2ccccc2c(=O)n1-c1ccc(F)cc1)N(CCN(C)C)C(=O)c1ccc(-c2ccccc2)cc1 (stereo not drawn) [Compound 1.06] | 147.3
8 | COCCN(C(=O)Cc1ccc(-c2ccccc2)cc1)C(C)c1nc2ccccc2c(=O)n1-c1ccc(F)cc1 (stereo not drawn) [Compound 1.17] | 153.8
9 | CCOCCN(C(=O)Cc1ccc(-c2ccccc2)cc1)C(C)c1nc2ccccc2c(=O)n1-c1ccc(F)cc1 (stereo not drawn) [Compound 1.19] | 150.6
10 | COc1ccc(-n2c(C(C)N(CCN3CCCC3)C(=O)Cc3ccc(-c4ccccc4)cc3)nc3ccccc3c2=O)cc1F (stereo not drawn) [Compound 1.33] | 96.9
11 | COc1ccc(-n2c(C(C)N(CCN3CCCC3)C(=O)Cc3ccc(-c4ccccc4)cc3)nc3ccccc3c2=O)cc1 (stereo not drawn) [Compound 1.34] | 116.3
12 | COc1ccc(-n2c(C(C)N(CCN(C)C)C(=O)Cc3ccc(OCc4ccccc4)cc3)nc3ccccc3c2=O)cc1 (stereo not drawn) [Compound 1.36] | 61.3
13 | C#Cc1ccc(-n2c(C(C)N(CCOC)C(=O)Cc3ccc(-c4ccccc4)cc3)nc3ccccc3c2=O)cc1 (stereo not drawn) [Compound 3.12, 2-((N-2-Methoxyethyl)-N-(4-phenylphenylacetyl)-1-aminoethyl)-3-(4-ethynylphenyl) -3H-quinazoline-4-one] | 73.3
14 | CC(=O)CN(C(=O)Cc1ccc(C(F)(F)F)cc1)[C@H](C)c1nc2ccccc2c(=O)n1-c1ccc(F)cc1 [Compound 3.22] | 220 to 221
15 | CCOCCN(C(=O)Cc1cc(C(F)(F)F)cc(C(F)(F)F)c1)[C@H](C)c1nc2ccccc2c(=O)n1-c1ccc(OCC)cc1 [Compound 3.25] | 57 to 60
16 | CCOCCN(C(=O)Cc1ccc(F)c(C(F)(F)F)c1)[C@H](C)c1nc2ccccc2c(=O)n1-c1ccc(OCC)cc1 [Compound 3.26] | 137 to 138
17 | CCOCCN(C(=O)Cc1ccc(C(F)(F)F)c(F)c1)[C@H](C)c1nc2ccccc2c(=O)n1-c1ccc(OCC)cc1 [Compound 3.27] | 146 to 148
18 | CCOc1ccc(-n2c([C@@H](C)N(Cc3cccnc3)C(=O)Cc3ccc(OCC(F)(F)F)cc3)nc3ccccc3c2=O)cc1 [Compound 3.28] | 103 to 104
19 | CCOCCN(C(=O)Cc1ccc(OC(F)(F)F)cc1)C(C)c1nc2ccccc2c(=O)n1-c1ccc(OCC)cc1 (stereo not drawn) [Compound 3.30] | 153
20 | CCOCCN(C(=O)Cc1ccc(F)c(F)c1F)C(C)c1nc2ccccc2c(=O)n1-c1ccc(OCC)cc1 (stereo not drawn) [Compound 3.32] | 146.3
21 | CCOc1ccc(-n2c(C(C)N(Cc3cccnc3)C(=O)Cc3ccc(F)c(F)c3)nc3ccccc3c2=O)cc1 (stereo not drawn) [Compound 3.34] | 75.5
22 | C[C@H](c1nc2ccccc2c(=O)n1-c1ccc(F)cc1)N(CCOCC(F)(F)F)C(=O)Cc1ccc(-c2ccccc2)cc1 [Compound 9.03] | 167.9
23 | C[C@H](c1nc2ccccc2c(=O)n1-c1ccc(F)cc1)N(CCOCC(F)(F)F)C(=O)Cc1ccc(C(F)(F)F)cc1 [Compound 9.04] | 156.2
24 | CCOCCN(C(=O)Cc1cccc(C(F)(F)F)c1)C(C)c1nc2ccccc2c(=O)n1-c1ccc(OCC)cc1 (stereo not drawn) [Compound 9.08] | 157.9
